Experimental data published in patent US9279811B2, “Methods and kits that identify tumors responsive to Src inhibitors” (OREGON HEALTH & SCIENCE UNIVERSITY, priority 2011, dated 2016).

Experiments:
Format in all cases: cell-based, human
VHL-WT SN12C cells = assay: Cell proliferation assay (cell count), SN12C
From the text: (§1) Cells were split to sustain log phase growth.

SN12C-shVHL cells = assay: Cell proliferation assay (cell count), SN12C-shVHL
From the text: as §1

SN12C VHL WT cells = assay: Cell cycle analysis by flow cytometry (PI staining), SN12C VHL WT
Procedure: (§2) Transduction of empty retroviral vector (pBabe) served as a negative control.
(§3) Flow Cytometry: Cells were plated at a density such that they were no more than 70% confluent on the day of analysis. […] For propidium iodide staining, cells were trypsinized, collected by centrifugation and washed in PBS prior to fixing in 70% v/v ethanol. Ethanol was removed by washing in PBS. Cells were incubated with 100 μg/ml RNase A (Sigma) for 5 minutes and stained with 50 μg/ml PI for 30 minutes. […] Cells were stained with fluorescein isothiocyanate (FITC)-conjugated anti-BrdU antibodies (BD Biosciences) according to the manufacturer's instructions. Following multiple washes in blocking solution and PBS, cells were stained with 5 μg/ml PI for 30 minutes. The PI or BrdU/PI-stained samples were analyzed by an LSR® FACS (Becton Dickinson) and the cell cycle profile was analyzed with the FlowJo® software (Tree Star Inc.). Phosphoprotein flow cytometry analysis was performed as previously described in Shah N P et al, Cell 14, 485 (2008), incorporated by reference herein.

SN12C shVHL cells = assay: Cell cycle analysis by flow cytometry (PI staining), SN12C shVHL
Procedure: as §2, §3

ACHN VHL WT cells = assay: Cell cycle analysis by flow cytometry (PI staining), ACHN VHL WT
Procedure: as §2, §3

ACHN shVHL cells = assay: Cell cycle analysis by flow cytometry (PI staining), ACHN shVHL
Procedure: as §2, §3

SN12C VHL WT = assay: Cell cycle analysis of HIF-α mutant cell lines, SN12C, VHL WT; details: 48 hours post treatment
Procedure: as §2, §3

[1] = test system: SN12C cells expressing constitutively stable HIF-2α-P405A, P853A; assay: Cell cycle analysis of HIF-α mutant cell lines, SN12C HIF-2α; details: 48 hours post treatment
Procedure: as §2, §3

ACHN VHL WT = assay: Cell cycle analysis of HIF-α mutant cell lines, ACHN, VHL WT; details: 48 hours post treatment
Procedure: as §2, §3

[2] = test system: ACHN cells expressing constitutively stable HIF-2α-P405A, P853A; assay: Cell cycle analysis of HIF-α mutant cell lines, ACHN HIF-2α; details: 48 hours post treatment
Procedure: as §2, §3

## Cc1ccc(NC(=O)c2ccc(CN3CCN(C)CC3)cc2)cc1Nc1nccc(-c2cccnc2)n1 [imatinib]
VHL-WT SN12C cells
  effect on proliferation: had no effect on the proliferation
SN12C-shVHL cells
  effect on proliferation: had no effect on the proliferation

## Cc1nc(Nc2ncc(C(=O)Nc3c(C)cccc3Cl)s2)cc(N2CCN(CCO)CC2)n1 [dasatinib]
SN12C VHL WT cells; dasatinib 25 nM
  Cell population (%) in G1: 59.5%
  Cell population (%) in G2/M: 15.0%
  Cell population (%) in S: 23.9%
SN12C VHL WT cells; dasatinib 50 nM
  Cell population (%) in G1: 63.6%
  Cell population (%) in G2/M: 11.7%
  Cell population (%) in S: 22.8%
SN12C VHL WT cells; dasatinib 100 nM
  Cell population (%) in G1: 70.0%
  Cell population (%) in G2/M: 11.7%
  Cell population (%) in S: 16.3%
SN12C shVHL cells; dasatinib 25 nM
  Cell population (%) in G1: 45.2%
  Cell population (%) in G2/M: 17.5%
  Cell population (%) in S: 36.9%
SN12C shVHL cells; dasatinib 50 nM
  Cell population (%) in G1: 45.4%
  Cell population (%) in G2/M: 15.7%
  Cell population (%) in S: 38.5%
SN12C shVHL cells; dasatinib 100 nM
  Cell population (%) in G1: 46.1%
  Cell population (%) in G2/M: 18.5%
  Cell population (%) in S: 35.3%
ACHN VHL WT cells; dasatinib 25 nM
  Cell population (%) in G1: 59.7%
  Cell population (%) in G2/M: 12.6%
  Cell population (%) in S: 25.8%
ACHN VHL WT cells; dasatinib 50 nM
  Cell population (%) in G1: 62.1%
  Cell population (%) in G2/M: 16.0%
  Cell population (%) in S: 17.6%
ACHN VHL WT cells; dasatinib 100 nM
  Cell population (%) in G1: 64.5%
  Cell population (%) in G2/M: 14.9%
  Cell population (%) in S: 15.7%
ACHN shVHL cells; dasatinib 25 nM
  Cell population (%) in G1: 50.2%
  Cell population (%) in G2/M: 9.8%
  Cell population (%) in S: 37.4%
ACHN shVHL cells; dasatinib 50 nM
  Cell population (%) in G1: 47.6%
  Cell population (%) in G2/M: 14.2%
  Cell population (%) in S: 36.7%
ACHN shVHL cells; dasatinib 100 nM
  Cell population (%) in G1: 46.1%
  Cell population (%) in G2/M: 10.9%
  Cell population (%) in S: 40.8%
SN12C VHL WT; dasatinib 25 nM
  Cell population (%) in G1: 60.1%
  Cell population (%) in G2/M: 13.3%
  Cell population (%) in S: 25.1%
SN12C VHL WT; dasatinib 50 nM
  Cell population (%) in G1: 59.2%
  Cell population (%) in G2/M: 11.4%
  Cell population (%) in S: 27.6%
SN12C VHL WT; dasatinib 100 nM
  Cell population (%) in G1: 60.4%
  Cell population (%) in G2/M: 11.1%
  Cell population (%) in S: 26.5%
[1]; dasatinib 25 nM
  Cell population (%) in G1: 54.8%
  Cell population (%) in G2/M: 20.6%
  Cell population (%) in S: 23.6%
[1]; dasatinib 50 nM
  Cell population (%) in G1: 55.7%
  Cell population (%) in G2/M: 22.1%
  Cell population (%) in S: 21.4%
[1]; dasatinib 100 nM
  Cell population (%) in G1: 49.7%
  Cell population (%) in G2/M: 21.3%
  Cell population (%) in S: 27.8%
ACHN VHL WT; dasatinib 25 nM
  Cell population (%) in G1: 59.2%
  Cell population (%) in G2/M: 17.1%
  Cell population (%) in S: 21.6%
ACHN VHL WT; dasatinib 50 nM
  Cell population (%) in G1: 56.4%
  Cell population (%) in G2/M: 16.0%
  Cell population (%) in S: 25.1%
ACHN VHL WT; dasatinib 100 nM
  Cell population (%) in G1: 60.1%
  Cell population (%) in G2/M: 22.0%
  Cell population (%) in S: 17.6%
[2]; dasatinib 25 nM
  Cell population (%) in G1: 53.9%
  Cell population (%) in G2/M: 16.1%
  Cell population (%) in S: 27.7%
[2]; dasatinib 50 nM
  Cell population (%) in G1: 51.9%
  Cell population (%) in G2/M: 19.3%
  Cell population (%) in S: 27.0%
[2]; dasatinib 100 nM
  Cell population (%) in G1: 55.3%
  Cell population (%) in G2/M: 17.7%
  Cell population (%) in S: 24.2%
